Data set [1] concerns beagle dogs. The note with it: ref ECHA [2013], Geigy [1970], Til et al. [1968]; cited from earlier work.
The nature of data set [2]: Renal elimination kinetics of UV 328 and its metabolites in urine after single oral exposure. The note with it: n = 3. On the procedure: Three volunteers (two men and one person, mean age 37.3 ± 15.5, mean body weight 81.3 ± 6.1 kg) were selected for the in vivo study. Prior to oral exposure, every volunteer collected one urine sample. Additionally, one blood sample was taken using EDTA-Monovettes® (Sarstedt, Nümbrecht, Germany) before exposure. […] Thereby, a safety factor of 100 was considered for single application and interspecies differences, resulting in a dose of 0.3 mg/kg bw. […] Participants collected the total urine volume of each void separately throughout 72 h and recorded the respective sampling times. […] The urine samples were volumetrically measured for each sampling point, aliquoted in urine Monovettes® (Sarstedt, Nümbrecht, Germany) and stored frozen at − 50 °C until analysis.
The urine samples were processed according to a previously published procedure (Denghel and Göen [2020]). In brief, urine samples were enzymatically hydrolyzed using β-glucuronidase/arylsulfatase from Helix pomatia. […] The extracts were derivatized with BSA/TMCS and TSIM and finally measured via GC–MS/MS with advanced electron ionization (AEI).
Thereby, RE,i is the renal excretion rate for the urine sample i (in µg/h), ci is the analyte concentration in the urine sample (in µg/L), Vi is the volume of the urine sample (in L) and ti and ti-1 are the elapsed time values (in h) of the sample and the previous sample, respectively.
Afterwards, the time course of the excretion rates RE,i was recorded for the middle of the respective sampling period (ti,m in h) according to the equation: ti,m=ti-1+ti-ti-1/2.
The current excretion rates were plotted as a function of the average time of the respective sampling period for every volunteer and each analyte.
Finally, mean excretion curves were calculated by taking the average of related urinary sampling times and the corresponding renal excretion rates (in µg/h) for all volunteers’ samples (arithmetic mean ± standard deviation). The mean cumulative excreted amount (in µmol) of all volunteers was obtained by addition of each molar excreted amount: ∑i=0nci×Vi/M.
Thereby, ci is the concentration of the metabolite in urine (in µg/L), Vi is the volume of the respective urine sample (in L) and M is the molar mass of the respective metabolite (in µg/µmol).
Afterwards, excretion half-lives (t1/2) (in h) were ascertained as described in Sect. “Evaluation of blood kinetics” by plotting the current excretion rates as function of time.

Data set [3] concerns beagle dogs. The note with it: ref US EPA [2009]; cited from earlier work.
The test system of the next data set is animal studies. The following applies: oral exposure, ref CIBA-GEIGY [1978], Kim et al. [2011a]; cited from earlier work.
Data set [4] in a line: Shares of conjugated analytes in urine (analysis with and without β-glucuronidase/arylsulfatase hydrolysis). The note with it: urine of one volunteer. On the procedure: The analysis of urine samples was performed with and without hydrolysis for one volunteer to determine the shares of analytes conjugated with glucuronic acid or sulfate. Initially, urine samples were thawed, equilibrated to room temperature and homogenized using a vortex mixer. Afterwards, the Monovettes® were centrifuged for 2 min at 1600 g to sediment solid residue in the sample. 1 mL of the sample was transferred into a 15 mL conical tube (Sarstedt, Nümbrecht, Germany). Without hydrolysis, 1 mL of the urine samples was prepared with 200 μL of ammonium acetate buffer (1 mol/L, pH 6) and 10 μL of the internal standard mix solution. […] Finally, the calculated analyte excretion rates (see Sect. “Evaluation of renal elimination”) obtained with hydrolysis were correlated with the ones prepared without hydrolysis for every detected compound. A linear curve fit was applied to the plotted data points. The resulting slope of the regression line described the percentage of free and therefore unconjugated analyte.
Therefore, urine samples of one volunteer were analyzed with and without addition of β-glucuronidase/arylsulfatase from Helix pomatia and incubation according to the standard procedure previously published (Denghel and Göen [2020]) (see Sect. “Analysis of urine samples without hydrolysis”).

The subject of the next data set is rats. The note with it: ref ECHA [2013], Geigy [1970], Til et al. [1968]; cited from earlier work.
Data set [5] is described as follows: Kinetics of UV 328 and its metabolites in blood after single oral exposure of volunteers. The format is in vivo, human. As for the experimental part:
Furthermore, blood samples were drawn from each volunteer 2, 4, 6, 8, 10, 24, […] 48 h after exposure. In summary, […] blood samples were collected from every volunteer. One volunteer donated two EDTA—Monovettes® (Sarstedt, Nümbrecht, Germany) for every time point. So, for every sampling time one sample was kept as whole blood while the plasma fraction was extracted for the other. In this case, the respective blood vessels were centrifuged at 800 × g for 5 min. The supernatants were transferred to 15 mL conical plastic tubes (Sarstedt, Nümbrecht, Germany). Both blood and plasma samples were stored frozen at − 50 °C until analysis.
Analysis of blood samples was performed according to a previously published method (Denghel and Göen [2021]). In summary, blood proteins and cellular components were precipitated by the addition of ACN. Afterwards, the supernatant was diluted with sodium chloride solution and the investigated analytes were extracted by dispersive liquid–liquid microextraction (DLLME) using a mixture of CH2Cl2 and ACN. […] Variation coefficients ranged from 2 to 9% for precision in series and from 3 to 11% for interday precision. Additionally, relative recovery rates between 80 and 100% were found.
The ln-transformed mean excretion curve was plotted against the time (in h) to obtain the slope (kel, elimination rate constant) and the excretion half-life (t1/2) as follows: t1/2=ln2/|kel|.

Data set [6] is described as follows: Medical laboratory values (liver, kidney, LDH, CK) of volunteers before, during and one week after oral exposure. The format is in vivo, human. The note with it: third subject, seven days after exposure; not attributed to the exposure by the investigators. On the procedure:
Because of potential confounding effects on those liver and kidney laboratory parameters and their potential to indicate massive cell destruction, lactate dehydrogenase (LDH) and creatinine kinase (CK) were included in the medical blood work as well. All medical laboratory values were carried out by an accredited medical laboratory. Thus, initial pathological laboratory values for liver or kidney function were defined as further exclusion criteria for study participation. In case of occurrence of relevant pathological medical values for liver or kidney function during the ongoing study which could be attributable to the study exposure, no further subjects were to be included until further clarification, potentially leading to a full cessation of the whole study.

Where [7] appears, read: both sexes, human, in vivo, po, 0.3 mg/kg.

In the case of `CCC(C)(C)c1cc(-n2nc3ccccc3n2)c(O)c(C(C)(C)CC)c1` [UV 328, 2-(2H-Benzotriazol-2-yl)-4,6-di-tert-pentylphenol], the “toxicity after repeated oral administration” value with beagle dogs [1] was “specific target organ toxicity to liver and kidneys”; in the data set with rats it was “specific target organ toxicity to liver and kidneys”. Further, in data set [2] (human urine with hydrolysis, oral 0.3 mg/kg bw, mean ± SD), the “REmax (maximum renal excretion rate)” value is 0.013 ± 0.003 µg/h. The “share of cumulative amounts of all quantified analytes in urine” value in data set [2] (urine with hydrolysis, cumulative within 72 h) came to 1.0 ± 0.1%. In addition, the “No Observed Adverse Effect Level (NOAEL)” value in the data set with beagle dogs [3] is on record as 30 mg UV 328/kg bw/day. Also, the acute toxicity entry in the data set with animal studies is listed as “No acute toxicity was observed”. The “share excreted via urine without conjugation to glucuronic acid or sulfate” value in data set [4] is on record as “about 84%”. Moreover, the “slope of the linear regression line (excretion rates without vs with hydrolysis)” value in data set [4] (slope = fraction of free analyte) turned out to be 0.84. The “share of all detected parameters in blood” value in data set [5] (blood samples 8 h after exposure, without hydrolysis, n = 3) is on record as 95.2 ± 2.0%. The concentration at 24 h in data set [5] (setting [7]) was 83.1 ± 54.2 ng/mL. In addition, the concentration at 48 h in data set [5] (setting [7]) was 29.1 ± 19.4 ng/mL. Also, the half-life in data set [5] (both sexes, human, in vivo, po, 0.3 mg/kg, t1/2 (0–24 h) in blood) was 5.3 h; in data set [5] (both sexes, human, in vivo, po, 0.3 mg/kg, t1/2 (24–48 h) in blood), 16.3 h. Also, the Cmax in data set [5] (both sexes, human, whole blood, po, 0.3 mg/kg bw, human whole blood, oral 0.3 mg UV 328/kg body weight, mean ± SD, n = 3) turned out to be 736 ± 489 ng/mL. In data set [5] (both sexes, human, whole blood, po, 0.3 mg/kg bw, human whole blood, oral 0.3 mg UV 328/kg body weight, n = 3, read-out: tmax in blood), the Tmax came to 8 h. The cmax in blood in data set [5] (human whole blood, oral 0.3 mg UV 328/kg body weight, mean ± SD, n = 3) came to 736.2 ± 488.7 µg/L. For the same compound, the “CK value (creatinine kinase)” value in data set [6] was found to be 6784 U/L.
